# According to US7186829B1, “Aryl-substituted heterocyclic enaminones” (Bayer Aktiengesellschaft, priority 1999, dated 2007):
# What was measured:
# [1] = test system: larva (L3) of the army worm (Spodoptera frugiperda); assay: Spodoptera frugiperda test; assay type: in vivo; conditions: preparation pipetted onto synthetic feed, result in words
# Description: Spodoptera frugiperda test • Solvent: 31 parts by weight of dimethylformamide • Emulsifier: 1 part by weight of alkylaryl polyglycol ether To produce a suitable preparation of active compound, 1 part by weight of active compound is mixed with the stated amount of solvent and the stated amount of emulsifier, and the concentrate is diluted with emulsifier-containing water to the desired concentration. A stated amount of the preparation of active compound of the desired concentration is pipetted onto a standardized amount of synthetic feed. In 6 repetitions, in each case one larva (L3) of the army worm (Spodoptera frugiperda) is placed on the feed. After the desired period of time, the kill in % is determined. 100% means that all animals have been killed; 0% means that none of the animals have been killed.
# [2] = test system: Heliothis virescens caterpillars; assay: Heliothis virescens test; assay type: in vivo; conditions: soya bean shoots (Glycine max) dipped; result in words
# Description: Heliothis virescens test • Solvent: 30 parts by weight of dimethylformamide • Emulsifier: 1 part by weight of alkylaryl polyglycol ether To produce a suitable preparation of active compound, 1 part by weight of active compound is mixed with the stated amounts of solvent and emulsifier, and the concentrate is diluted with emulsifier-containing water to the desired concentration. Soya bean shoots (Glycine max) are treated by being dipped into the preparation of active compound of the desired concentration and populated with Heliothis virescens caterpillars while the leaves are still moist. After the desired period of time, the kill in % is determined. 100% means that all caterpillars have been killed; 0% means that none of the caterpillars have been killed.
# [3] = test system: larvae of the mustard beetle (Phaedon cochleariae); assay: Phaedon larvae test; assay type: in vivo; conditions: cabbage leaves (Brassica oleracea) dipped into preparation of active compound; result in words
# Description: Phaedon larvae test • Solvent: 31 parts by weight of dimethylformamide • Emulsifier: I part by weight of alkylaryl polyglycol ether To produce a suitable preparation of active compound, 1 part by weight of active compound is mixed with the stated amounts of solvent and emulsifier, and the concentrate is diluted with emulsifier-containing water to the desired concentration. Cabbage leaves (Brassica oleracea) are treated by being dipped into the preparation of active compound of the desired concentration and populated with larvae of the mustard beetle (Phaedon cochleariae) while the leaves are still moist. After the desired period of time, the kill in % is determined. 100% means that all beetle larvae have been killed; 0% means that none of the beetle larvae have been killed.
# [4] = test system: common spider mite (Tetranychus urticae); assay: Tetranychus test (OP resistent/dip treatment); assay type: in vivo; conditions: bean plants (Phaseolus vulgaris) infested by all stages, dip treatment, OP resistent; result in words
# Description: Tetranychus test (OP resistent/dip treatment) • Solvent: 30 parts by weight of dimethylformamide • Emulsifier: 1 part by weight of alkylaryl polyglycol ether To produce a suitable preparation of active compound, 1 part by weight of active compound is mixed with the stated amounts of solvent and emulsifier, and the concentrate is diluted with emulsifier-containing water to the desired concentration. Bean plants (Phaseolus vulgaris) which are heavily infested by all stages of the common spider mite (Tetranychus urticae) are dipped into a preparation of active compound of the desired concentration. After the desired period of time, the kill in % is determined. 100% means that all spider mites have been killed; 0% means that none of the spider mites have been killed.
SMILES,melting point,other results
"CC1OCCN/C1=C(/C#N)C(=O)c1cc(-c2ccc(Cl)cc2)cc(C(F)(F)F)c1 (centres unmarked) [I-1-a-37, 3-[3-(4-chlorophenyl)-5-trifluoromethylphenyl]-2-(2-methyl-1,4-oxazinon-3-ylidene)-3-oxopropionitrile]",119 °C,
"N#CC(C(=O)c1ccc(Cl)cc1)=C1COCCN1 [I-1-a-5, 3-(4-chlorophenyl)-2-(1,4-oxazinan-3-ylidene)-3-oxo-propionitrile]",192 °C,
"N#C/C(C(=O)c1cc(C(F)(F)F)cc(C(F)(F)F)c1)=C1\CS(=O)(=O)CCN1 [I-1-a-15, 3-[3,5-bis(trifluoromethyl)phenyl]-2-(1,1-dioxo-Iλ^6,4-thiazinan-3-ylidene)-3-oxo-propionitrile]",224 to 226 °C,
"CCC1COC(C)/C(=C(\C#N)C(=O)c2ccc(Cl)cc2)N1 (centres unmarked) [I-1-a-1, 3-(4-chlorophenyl)-2-(5-ethyl-2-methyl-1,4-oxazinon-3-ylidene)-3-oxopropionitrile]",136 °C,
"CC1OCCNC1=C(C#N)C(=O)c1cc(C(F)(F)F)cc(C(F)(F)F)c1 (centres unmarked) [I-1-a-14, 3-[3,5-bis(trifluoromethyl)phenyl]-2-(2-methyl-1,4-oxazinan-3-ylidene)-3-oxopropionitrile]",142 °C,activity (kill in %) against Spodoptera frugiperda larvae [1]: good activity; activity (kill in %) against Heliothis virescens caterpillars [2]: good activity
"CC1OCCN/C1=C(/C#N)C(=S)c1cc(C(F)(F)F)cc(C(F)(F)F)c1 (centres unmarked) [I-1-a-2, 3-[3,5-bis(trifluoromethyl)phenyl]-2-(2-methyl-1,4-oxazinan-3-ylidene)-3-thioxopropionitrile]",195 °C,
"N#CC(C(=O)c1cc(C(F)(F)F)cc(C(F)(F)F)c1)=C1CSCCN1 [I-1-a-10, 3-[3,5-bis(trifluoromethyl)phenyl]-2-(1,4-thiazinan-3-ylidene)-3-oxo-propionitrile]",182 °C,activity (kill in %) against Phaedon cochleariae larvae [3]: good activity; activity (kill in %) against Tetranychus urticae [4]: good activity
